Patent US4725683A, “Fluorophenoxyphenoxypropionates and derivatives thereof” (The Dow Chemical Company, priority 1985, dated 1988)

Experiments:
Format in all cases: in vivo
[1] = tested on: Wheat; assay: Postemergent activity; conditions: Triticum aestivum, post-emergence, 336 h, read-out: % Control
Description: (§1) Representative compositions of the present invention were evaluated for the postemergence control of species of plants listed in Table A. In these evaluations, pots of the plant species listed in Table A, grown to a height of about 10 cms, were used. Aqueous spray compositions, containing various amounts of 2-[4-(2-fluoro-4-trifluoromethylphenoxy)-phenoxy]propionic acid methy ester, i.e., 125 ppm, 62.5 ppm, 31.25 ppm, 15.6 ppm, 7.8 ppm and 3.9 ppm, respectively, were applied to separate pots. The spray compositions were made by mixing the active ingredient in acetone to 1/2 the final volume, i.e., twice the final concentration. An equal amount of water was added to the active ingredient/acetone mixture wherein the water contained 0.1 percent by weight of TWEEN® 200 surfactant. The application to the plants was made to the point of run-off and was carried out with conventional spraying equipment. Other pots were sprayed with similar compositions containing no toxicant to serve as controls. Thereafter, the pots were maintained under conditions conducive for plant growth. Two weeks after treatment, the pots were examined for plant growth and evaluated on a scale of 0 to 100 where 0 represents no effect and 100 represents complete kill. The results of the examination of the treated pots are set forth below in Table A.
(§2) Substantially the same procedures as those described in Example A were repeated except that the active ingredients were 2-[4-(4-chloro-2-fluorophenoxy)phenoxy]propionic acid; methyl ester and its R-enantiomer and 2-(4-(4-bromo-2-fluorophenoxy)phenoxy propionic acid; methyl ester and its R enantiomer. The results are listed below in Table B.
(§3) In further operations employing the above general procedures and the indicated test compounds the following results were obtained: […]

[2] = tested on: Wild Oats; assay: Postemergent activity; conditions: Avena fatua, post-emergence, 336 h
Description: as §1, §2, §3

[3] = tested on: Green Foxtail; assay: Postemergent activity
Description: (§4) Representative compositions of the present invention were evaluated for the postemergence control of species of plants listed in Table A. In these evaluations, pots of the plant species listed in Table A, grown to a height of about 10 cms, were used. […] The spray compositions were made by mixing the active ingredient in acetone to 1/2 the final volume, i.e., twice the final concentration. An equal amount of water was added to the active ingredient/acetone mixture wherein the water contained 0.1 percent by weight of TWEEN® 200 surfactant. The application to the plants was made to the point of run-off and was carried out with conventional spraying equipment. […] Thereafter, the pots were maintained under conditions conducive for plant growth.

[4] = tested on: Yellow Foxtail; assay: Postemergent activity
Description: as §4

[5] = tested on: Barley; assay: Postemergent activity
Description: as §4

[6] = tested on: Blackgrass; assay: Postemergent activity
Description: as §4

[7] = tested on: Cheatgrass; assay: Postemergent activity
Description: as §4

[8] = tested on: Wheat; assay: Preemergent activity; conditions: Triticum aestivum, pre-emergence, read-out: Preemergence Control
Outline: (§5)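 Test compound was applied in acetone mixed with an equal volume of water containing 0.1% Tween-20, sprayed preemergence onto seed beds of sandy loam soil sown with the test species. Beds were kept under identical temperature and light. A solvent-only spray served as control.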

[9] = tested on: Crabgrass; assay: Preemergent activity
Outline: as §5

[10] = tested on: Yellow Foxtail; assay: Preemergent activity; conditions: Setaria, pre-emergence, read-out: Preemergence Control
Outline: as §5

[11] = tested on: Wild Oats; assay: Preemergent activity; conditions: Avena fatua, pre-emergence, read-out: Preemergence Control
Outline: as §5

## COC(=O)C(C)Oc1ccc(Oc2ccc(Br)cc2F)cc1 (racemic) [Example 4-Bromo-, 2-[4-(4-bromo-2-fluorophenoxy)phenoxy]propionic acid methyl ester]
[1]
  plant injury at 3.9 ppm: 0%
  plant injury at 7.8 ppm: 0%
  plant injury at 15.6 ppm: 0%
  plant injury at 31.25 ppm: 0%
  plant injury at 62.5 ppm: 0%
  plant injury at 125 ppm: 0%
  plant injury at 250 ppm: 0%
[1]; 500 ppm
  plant injury at 500 ppm: 0%
[2]
  pest or weed control at 3.9 ppm: 70%
[2]; read-out: % Control
  pest or weed control at 7.8 ppm: 80%
  pest or weed control at 15.6 ppm: 100%
  pest or weed control at 31.25 ppm: 100%
  pest or weed control at 62.5 ppm: 100%
  pest or weed control at 125 ppm: 95%
  pest or weed control at 250 ppm: 100%
[2]; 500 ppm, read-out: % Control
  pest or weed control at 500 ppm: 100%
[3]; 0.2 ppm
  % Control: 20%
[3]; 0.4 ppm
  % Control: 90%
[3]; 0.8 ppm
  % Control: 90%
[3]; 1.5 ppm
  % Control: 100%
[3]; 3.1 ppm
  % Control: 100%
[3]; 6.25 ppm
  % Control: 100%
[3]; 12.5 ppm
  % Control: 100%
[3]; 25 ppm
  % Control: 100%
[4]; 0.2 ppm
  % Control: 0%
[4]; 0.4 ppm
  % Control: 0%
[4]; 0.8 ppm
  % Control: 20%
[4]; 1.5 ppm
  % Control: 50%
[4]; 3.1 ppm
  % Control: 80%
[4]; 6.25 ppm
  % Control: 100%
[4]; 12.5 ppm
  % Control: 100%
[4]; 25 ppm
  % Control: 100%
[5]; 3.9 ppm
  % Control: 0%
[5]; 7.8 ppm
  % Control: 0%
[5]; 15.6 ppm
  % Control: 0%
[5]; 31.25 ppm
  % Control: 0%
[5]; 62.5 ppm
  % Control: 10%
[5]; 125 ppm
  % Control: 10%
[5]; 250 ppm
  % Control: 10%
[5]; 500 ppm
  % Control: 30%
[6]; 0.2 ppm
  % Control: 0%
[6]; 0.4 ppm
  % Control: 10%
[6]; 0.8 ppm
  % Control: 30%
[6]; 1.5 ppm
  % Control: 50%
[6]; 3.1 ppm
  % Control: 70%
[6]; 6.25 ppm
  % Control: 99%
[6]; 12.5 ppm
  % Control: 100%
[6]; 25 ppm
  % Control: 100%
[7]; 0.2 ppm
  % Control: 0%
[7]; 0.4 ppm
  % Control: 0%
[7]; 0.8 ppm
  % Control: 0%
[7]; 1.5 ppm
  % Control: 0%
[7]; 3.1 ppm
  % Control: 0%
[7]; 6.25 ppm
  % Control: 0%
[7]; 12.5 ppm
  % Control: 0%
[7]; 25 ppm
  % Control: 0%

## COC(=O)C(C)Oc1ccc(Oc2ccc(C(F)(F)F)cc2F)cc1 (stereo not drawn) [2-[4-(2-fluoro-4-trifluoromethylphenoxy)phenoxy]propionic acid methyl ester]
[1]
  plant injury at 3.9 ppm: 0%
  plant injury at 7.8 ppm: 60%
  plant injury at 15.6 ppm: 90%
  plant injury at 31.25 ppm: 100%
  plant injury at 62.5 ppm: 100%
  plant injury at 125 ppm: 100%
[2]
  pest or weed control at 3.9 ppm: 0%
[2]; read-out: % Control
  pest or weed control at 7.8 ppm: 0%
  pest or weed control at 15.6 ppm: 60%
  pest or weed control at 31.25 ppm: 100%
  pest or weed control at 62.5 ppm: 100%
  pest or weed control at 125 ppm: 100%
[8]; 0.018 kgs/hectare
  plant injury at 18 g/ha: 0%
[8]; 0.035 kgs/hectare
  plant injury at 35 g/ha: 20%
[8]; 0.07 kgs/hectare
  plant injury at 70 g/ha: 90%
[8]; 0.114 kgs/hectare
  plant injury at 114 g/ha: 100%
[8]; 0.28 kgs/hectare
  plant injury at 280 g/ha: 100%
[9]; 0.018 kgs/hectare
  Preemergence Control: 40%
[9]; 0.035 kgs/hectare
  Preemergence Control: 100%
[9]; 0.07 kgs/hectare
  Preemergence Control: 100%
[9]; 0.114 kgs/hectare
  Preemergence Control: 100%
[9]; 0.28 kgs/hectare
  Preemergence Control: 100%
[10]; 0.018 kgs/hectare
  pest or weed control at 18 g/ha: 20%
[10]; 0.035 kgs/hectare
  pest or weed control at 35 g/ha: 70%
[10]; 0.07 kgs/hectare
  pest or weed control at 70 g/ha: 100%
[10]; 0.114 kgs/hectare
  pest or weed control at 114 g/ha: 100%
[10]; 0.28 kgs/hectare
  pest or weed control at 280 g/ha: 100%
[11]; 0.018 kgs/hectare
  pest or weed control at 18 g/ha: 0%
[11]; 0.035 kgs/hectare
  pest or weed control at 35 g/ha: 20%
[11]; 0.07 kgs/hectare
  pest or weed control at 70 g/ha: 90%
[11]; 0.114 kgs/hectare
  pest or weed control at 114 g/ha: 100%
[11]; 0.28 kgs/hectare
  pest or weed control at 280 g/ha: 100%
[4]; 3.9 ppm
  % Control: 35%
[4]; 7.8 ppm
  % Control: 100%
[4]; 15.6 ppm
  % Control: 100%
[4]; 31.25 ppm
  % Control: 100%
[4]; 62.5 ppm
  % Control: 100%
[4]; 125 ppm
  % Control: 100%

## COC(=O)[C@@H](C)Oc1ccc(Oc2ccc(Br)cc2F)cc1 [4-Bromo-(R-Enantiomer), R enantiomer of 2-[4-(4-bromo-2-fluorophenoxy)phenoxy]propionic acid methyl ester]
[1]; 1.9 ppm
  plant injury at 1.9 ppm: 0%
[1]
  plant injury at 3.9 ppm: 0%
  plant injury at 7.8 ppm: 0%
  plant injury at 15.6 ppm: 0%
  plant injury at 31.25 ppm: 0%
  plant injury at 62.5 ppm: 0%
  plant injury at 125 ppm: 70%
  plant injury at 250 ppm: 100%
[2]; 1.9 ppm
  pest or weed control at 1.9 ppm: 60%
[2]
  pest or weed control at 3.9 ppm: 80%
[2]; read-out: % Control
  pest or weed control at 7.8 ppm: 80%
  pest or weed control at 15.6 ppm: 90%
  pest or weed control at 31.25 ppm: 90%
  pest or weed control at 62.5 ppm: 100%
  pest or weed control at 125 ppm: 100%
  pest or weed control at 250 ppm: 100%
[3]; 0.1 ppm
  % Control: 0%
[3]; 0.2 ppm
  % Control: 50%
[3]; 0.4 ppm
  % Control: 100%
[3]; 0.8 ppm
  % Control: 100%
[3]; 1.5 ppm
  % Control: 100%
[3]; 3.1 ppm
  % Control: 100%
[3]; 6.3 ppm
  % Control: 100%
[3]; 12.5 ppm
  % Control: 100%
[4]; 0.1 ppm
  % Control: 0%
[4]; 0.2 ppm
  % Control: 0%
[4]; 0.4 ppm
  % Control: 0%
[4]; 0.8 ppm
  % Control: 20%
[4]; 1.5 ppm
  % Control: 60%
[4]; 3.1 ppm
  % Control: 100%
[4]; 6.3 ppm
  % Control: 100%
[4]; 12.5 ppm
  % Control: 100%
[5]; 1.9 ppm
  % Control: 0%
[5]; 3.9 ppm
  % Control: 0%
[5]; 7.8 ppm
  % Control: 0%
[5]; 15.6 ppm
  % Control: 0%
[5]; 31.25 ppm
  % Control: 0%
[5]; 62.5 ppm
  % Control: 95%
[5]; 125 ppm
  % Control: 90%
[5]; 250 ppm
  % Control: 100%
[6]; 0.1 ppm
  % Control: 0%
[6]; 0.2 ppm
  % Control: 0%
[6]; 0.4 ppm
  % Control: 50%
[6]; 0.8 ppm
  % Control: 60%
[6]; 1.5 ppm
  % Control: 90%
[6]; 3.1 ppm
  % Control: 90%
[6]; 6.3 ppm
  % Control: 100%
[6]; 12.5 ppm
  % Control: 100%
[7]; 0.1 ppm
  % Control: 0%
[7]; 0.2 ppm
  % Control: 0%
[7]; 0.4 ppm
  % Control: 0%
[7]; 0.8 ppm
  % Control: 0%
[7]; 1.5 ppm
  % Control: 0%
[7]; 3.1 ppm
  % Control: 0%
[7]; 6.3 ppm
  % Control: 0%
[7]; 12.5 ppm
  % Control: 0%
